Assay [1] addresses model rhomboid protease GlpG (Escherichia coli, UniProt P09391). Put plainly: In vitro inhibition of rhomboid protease GlpG (IC50 and Ki, as described in Ticha et al., 2017). The note with it: for Ki: read-out: Ki Range. The format is biochemical, E. coli. An excerpt:
The in vivo activity of the compounds against GlpG according to the invention is in the low nanomolar range (FIG. 1), which is up to three orders of magnitude better than any other currently used rhomboid inhibitors. The co-crystal structures of these compounds with rhomboid protease (FIG. 2) show their mode of binding into the active site of rhomboid. Without wishing to be bound by such a theory, it appears that the ketoamide warhead covalently bonds to the catalytic serine, and extensively hydrogen bonds throughout the active site. The tail at the ketoamide nitrogen interacts with the S2′ pocket of rhomboid, engaging in a number of van der Waals contacts.

For assay [2], the system named is Plasmodium falciparum rhomboid 4 (PfROM4). Put plainly: PfROM4 cell culture assay: shedding of EBA175 in transfected HEK293ET cells. The format is cell-based. The note with it: HEK293ET cells transfected with PfROM4 and substrate EBA175; approximate, FIG. 3. The text has this:
(A) HEK293ET cells were transfected with plasmids encoding PfROM4 and its substrate EBA175, and the shedding of EBA175 by PfROM4 into the medium under various concentrations of Compound 16 was quantitated by near-infrared fluorescence detected Western blotting. (B) Dose-response analysis of PfROM4 inhibition by Compound 16.

The structures appear in SMILES notation. “Also recorded” adds a separate entry of the source.

model rhomboid protease GlpG, sequence (P09391 whole entry): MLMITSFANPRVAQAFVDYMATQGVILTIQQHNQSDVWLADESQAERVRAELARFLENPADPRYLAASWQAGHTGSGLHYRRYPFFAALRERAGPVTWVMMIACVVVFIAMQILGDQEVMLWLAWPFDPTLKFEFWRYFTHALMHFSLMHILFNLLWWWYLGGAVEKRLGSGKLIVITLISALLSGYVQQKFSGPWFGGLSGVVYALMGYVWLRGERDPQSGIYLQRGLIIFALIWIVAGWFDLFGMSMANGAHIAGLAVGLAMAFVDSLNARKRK

`CC(=O)C(=O)[C@H](CCCNC(=N)N)NC(=O)[C@@H](NC(=O)[C@H](CCCNC(=N)N)NC(=O)[C@H](Cc1cnc[nH]1)NN[C@@H](C)C(=O)C(=O)NCCc1ccccc1)C(C)C` [Compound 9]: the Ki in assay [1] fell in the range of 0.01 to 0.1 µM.

With `CC(=O)C(=O)[C@H](CCCNC(=N)N)NC(=O)[C@@H](NC(=O)[C@H](Cc1c[nH]c2ccccc12)NC(=O)[C@H](Cc1cnc[nH]1)NN[C@@H](C)C(=O)C(=O)NCCCCc1ccccc1)C(C)C` [Compound 16], the “IC50 of PfROM4 inhibition” value in assay [2] is “micro- to submicromolar range; also recorded: micromolar to submicromolar concentrations”.

In turn, `CC(=O)C(=O)[C@@H](NC(=O)[C@H](CCCNC(=N)N)NC(=O)[C@H](Cc1cnc[nH]1)NN[C@@H](C)C(=O)C(=O)NCCc1ccccc1)C(C)C` [Compound 12] yielded an IC50 in assay [1] of 0.55 µM.

`CC(=O)C(=O)[C@H](CCCNC(=N)N)NC(=O)[C@@H](NC(=O)[C@H](CCCNC(=N)N)NC(=O)[C@H](Cc1cnc[nH]1)NN[C@@H](C)C(=O)C(=O)NCc1cc(C)ccc1C)C(C)C` [Compound 10]: the Ki in assay [1] lay within 0.01 to 0.1 µM.

As to `CC(=O)C(=O)[C@H](CCCNC(=N)N)NC(=O)[C@@H](NC(=O)[C@H](CCCNC(=N)N)NC(=O)[C@H](Cc1cnc[nH]1)NN[C@@H](C)C(=O)C(=O)NCCCCc1ccccc1)C(C)C` [Compound 11], the inhibition constant Ki in assay [1] lay in the range of 0.01 to 0.1 µM.

Usually Ki stands for a dissociation constant, usually derived from enzyme kinetics or from competition with a known ligand. Usually IC50 stands for the midpoint of a concentration-inhibition curve. High values mean weaker potency in that assay, low ones greater potency in that assay.

These data come from US10927146B2, “Peptidyl ketoamides as inhibitors of rhomboid proteases” (priority 2017, dated 2021).
